Results: patent US20240217963A1, “RECEPTOR-INTERACTING PROTEIN 1 INHIBITORS, PREPARATIONS, AND USES THEREOF” (SIRONAX LTD., priority 2021, published 2024)

Biological target: T1, RIP1 (Homo sapiens, UniProt Q13546)
T1 sequence (Q13546 1-671): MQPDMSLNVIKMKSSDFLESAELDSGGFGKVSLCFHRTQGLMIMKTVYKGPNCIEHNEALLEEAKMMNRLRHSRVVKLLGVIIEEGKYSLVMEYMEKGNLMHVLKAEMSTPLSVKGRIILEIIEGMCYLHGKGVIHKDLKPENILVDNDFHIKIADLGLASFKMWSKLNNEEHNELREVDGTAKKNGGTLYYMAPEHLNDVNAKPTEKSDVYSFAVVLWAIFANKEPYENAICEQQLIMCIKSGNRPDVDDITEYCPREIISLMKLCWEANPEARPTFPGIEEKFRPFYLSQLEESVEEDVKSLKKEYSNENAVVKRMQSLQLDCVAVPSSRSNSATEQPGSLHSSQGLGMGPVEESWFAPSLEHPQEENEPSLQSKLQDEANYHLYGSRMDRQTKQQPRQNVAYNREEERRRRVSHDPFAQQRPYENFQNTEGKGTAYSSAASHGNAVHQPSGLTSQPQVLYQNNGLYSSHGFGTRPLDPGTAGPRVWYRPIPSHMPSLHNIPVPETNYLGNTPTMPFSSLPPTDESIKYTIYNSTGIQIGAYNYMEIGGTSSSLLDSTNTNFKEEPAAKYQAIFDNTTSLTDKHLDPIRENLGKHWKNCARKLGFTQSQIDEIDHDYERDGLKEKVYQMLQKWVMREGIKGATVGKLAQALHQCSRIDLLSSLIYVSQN
Experiment: Cellular RIP1 inhibitory activity: HT-29 necroptosis (TNFα/SMAC mimetic/zVAD-FMK) CellTiter-Glo viability assay
Type: cell-based
Settings: HT-29 cells, TNF-α 10 ng/ml + SMAC mimetic 6 μM + zVAD-FMK 10 μM, 20 hours, geometric mean, read-out: EC50 Values of in vitro Cellular RIP1 Inhibitory Activity

In the case of `Cc1cnn(C)c1-c1nc(N2CCC(C(=O)N(C)Cc3cncs3)CC2)ncc1F` [Compound 98, 1-(4-(1,4-dimethyl-1H-pyrazol-5-yl)-5-fluoropyrimidin-2-yl)-N-methyl-N-(thiazol-5-ylmethyl)piperidine-4-carboxamide], the EC50 is reported as 0.1 to 100 nM.
For `CCN(Cc1cncs1)C(=O)C1CCN(c2ncc(F)c(-c3c(C)cnn3C)n2)CC1` [Compound 99, 1-(4-(1,4-dimethyl-1H-pyrazol-5-yl)-5-fluoropyrimidin-2-yl)-N-ethyl-N-(thiazol-5-ylmethyl)piperidine-4-carboxamide], the EC50 was 0.1 to 100 nM.
